One experiment deals with hESC. Conditions: cited from earlier work.
The test system of the next experiment is hES cells. Briefly: ES cell aggregation under different conditions (EB formation by centrifugation, Example 1). Conditions: inducer at 0.1 mg/ml (each protein). The experiment is classed as cell-based, human. An excerpt:
Our investigations have shown that two elements when added to the hESC suspensions are sufficient to allow re-aggregation in the absence of MEF or other feeder cells. These two elements are the extracellular matrix proteins laminin and nidogen (Table 1 and FIG. 1A).
By adding human laminin and nidogen complex into suspensions of pure hES cells, cells or products of non-human origin can be completely avoided in the re-aggregation of hESC and the subsequent generation of EB. Laminin binds to the surface of hES cells through the specific receptor integrin α6 β1. […] Nidogen cross-links large molecules of laminin attached to the hES cell receptors into complex three-dimensional structures. When a laminin-nidogen mix is added to a hES cell suspension, highly viable EBs can be generated from as little as 100 hES cells (FIG. 1B).
Using our method, undifferentiated hES cells are prepared as a single cell suspension, plated (at the desired number of cells) into low attachment round bottom 96 well plates and then re-aggregated to form EBs using centrifugation in the presence of the laminin-nidogen complex. hEBs formed in this way have excellent viability, are of uniform size and contain all three germ layers (ectoderm, mesoderm and endoderm)—that can in turn be induced to generate more differentiated tissue. The simplicity of this method of hEB generation reduces the variability inherent in culture systems that require cellular components (such as MEFs) or other complex media. The simplicity of the system also facilitates the testing of variables that affect differentiation of hEB into different tissue types and improves the quantitation of any effects seen. This system may also be used for generation of chimeric EBs when different cell types (e.g., hES cells transduced with fluorescent tag can be mixed with non-transduced hES cells and re-aggregated into one EB with subsequent tracking of progenies arising from the labeled cells.

A further experiment deals with hESC lines H1 and H9. Briefly: hESC re-aggregation and EB formation, MEF-free modified spin EB method (Example 2). The experiment is classed as cell-based, human. The protocol: To generate MEF-free EBs, a modification of the “spin EB” method was used (8, 9). Colonies of H1 and H9 hESC (WiCell Inc) (passage 36-50) were cut into uniformed sized pieces using StemProEZPassage tool, transferred onto 6-well plates coated for 1 hour with Matrigel (growth factor reduced, no phenol red; BD Bioscience), and cultured in MEF-conditioned hESC media supplemented with 4 ng/ml FGF2. Pre-culture on Matrigel increases aggregation capacity of hESC (data not shown). After 24 hours, colonies were digested with Tryple Select into a single cell suspension, incubated with SSEA4 antibody, and SSEA4 positive cells sorted with FACS as described above. Before the sorting step 2-3% of the cells in suspension were represented by MEFs and 97-98% by hESC. After sorting, purity of hESC in the preparation was >99.9% as was measured with SSEA4 staining by FACS. These purified hESC were centrifuged at 1400 RPM and the resulting pellet was resuspended in previously described differentiation media, transferred into low attachment round-bottom 96 well culture plates (Nunc, Rochester, N.Y.) and centrifuged at 1400 RPM for 7 min with or without inducers of aggregation. To test the effects on cell aggregation, a mixture of ECMs in the form of Matrigel (5, 25, 100, 200, μg/ml) a solubilized basement membrane preparation extracted from the Engelbreth-Holm-Swarm (EHS) mouse sarcoma; murine laminin-111 and nidogen-1 complex (5, 25, 100, 200 μg/ml) from EHS sarcoma; or purified human collagen IV (1, 5, 25, 50 μg/ml) (all from BD Bioscience); human laminin-511 (1,5, 25, 50 μg/ml) (Sigma-Aldrich) and human nidogen-1 (1,5, 25, 50 μg/ml) (R&D systems) were added to the cell suspension prior to centrifugation. For directed differentiated of the EBs, differentiation media was supplemented with human vascular endothelial growth factor (VEGF), FGF2, bone morphogenic protein 4 (BMP4), or Wnt3a (all at 10 ng/ml; R&D systems) or FCS (Omega Scientific Inc. Tarzana, Calif.), prior to the final centrifugation step dependent upon experimental design.
Lower concentrations were not sufficient to aggregate all cells in the well. Higher concentrations of Matrigel increased viscosity and blocked efficient pellet formation during centrifugation.
To further dissect the mechanisms of hESC aggregation, the key ECM proteins were tested individually at a range of concentrations with regards to their capacity to assemble dispersed hESC into EBs. […] Thus, the presence of both laminin (either 111 or 511) and nidogen-1 was required for hESC aggregation.

Another experiment has as its system LN-EBs from hESC. Briefly: Germ layer differentiation of LN-EBs (immunohistochemistry for nestin, CD34, alpha-fetoprotein). In kind it is cell-based, human. The protocol:
FIG. 4: Generation of ectodermal, mesodermal and endodermal derivatives in the “LN-EB” system. “LN-EBs” were generated with the laminin-nidogen complex and in the presence of media designed for specific germ layer differentiation. A. For induction of ectodermal derivatives, serum-free media was supplemented with Wnt3a (10 ng/ml); B. Addition of BMP4, FGF2, VEGF (all 10 ng/ml) to serum-free medium induced formation of endodermal and mesodermal derivatives. C. Addition of 10% FCS, with no exogenous growth factors, induced synchronous generation of the all three germ layers. D. Standard EBs cultured in medium supplemented with 10% FCS. E. Control EBs cultured in serum-free media with no exogenous growth factors. F. No primary antibody control of immunostaining. Immunohistochemical detection of ectoderm, mesoderm and endoderm formation was assessed using antibodies for nestin (left column), CD34 (middle column) and alpha-fetoprotein (right column) respectively. Antigen expression is shown in brown color. Nuclei are stained with hematoxylin (blue). Magnification: 200×. […]
To generate MEF-free EBs, a modification of the “spin EB” method was used (8, 9). […] After sorting, purity of hESC in the preparation was >99.9% as was measured with SSEA4 staining by FACS. […]

[1] abbreviates: added individually as single agents at a range of concentrations.

For the molecule `C[C@@H](N)[C@H]1CC[C@H](C(=O)Nc2ccncc2)CC1` [Y-27632], the “aggregation and EB formation of dissociated hESC” value with hESC (10 μM) was “aggregate and form EBs”. Moreover, in the experiment with hESC, the “survival of hESC after dissociation to single cells” value is reported as “promote the survival”.

On to “Collagen IV: extracellular matrix protein collagen IV”, for which the Aggregation result in the experiment with hES cells is “−”.

For the molecule Fibronectin, the Aggregation result in the experiment with hES cells was “−”.

As to Laminin, in the experiment with hES cells, the Aggregation entry is listed as “+ (+ means very little aggregation)”.

As for “human collagen-IV: purified human collagen IV (BD Bioscience) [reference compound]”, the hESC aggregation result with hESC lines H1 and H9 (setting [1]) is recorded as “No aggregation”.

Regarding “human laminin-511 complexed with human nidogen-1: ultrapure human laminin-511 complexed with human nidogen-1, ratio laminin to nidogen 9:1”, the hESC aggregation entry in the experiment with hESC lines H1 and H9 (laminin-511 9-22.5 μg/ml with nidogen-1 1-2.5 μg/ml, ratio laminin to nidogen 9:1) was “robust aggregation”.

For “human laminin-511: human laminin-α5β1γ1 heterotrimer (Sigma-Aldrich)”, the hESC aggregation result in the experiment with hESC lines H1 and H9 (setting [1]) is “minimal aggregation”.

As to “murine laminin-111-nidogen-1 complex: murine laminin-111 and nidogen-1 complex from EHS sarcoma”, the hESC aggregation entry with hESC lines H1 and H9 (100-200 μg/ml, MEF-free single cell suspension, after centrifugation) is given as “robust aggregation”.

B1: Wnt3a: morphogen Wnt3a, 10 ng/ml (R&D systems) (protein, UniProt P56704 19-352, looked up)
Protein Wnt-3a: SYPIWWSLAVGPQYSSLGSQPILCASIPGLVPKQLRFCRNYVEIMPSVAEGIKIGIQECQHQFRGRRWNCTTVHDSLAIFGPVLDKATRESAFVHAIASAGVAFAVTRSCAEGTAAICGCSSRHQGSPGKGWKWGGCSEDIEFGGMVSREFADARENRPDARSAMNRHNNEAGRQAIASHMHLKCKCHGLSGSCEVKTCWWSQPDFRAIGDFLKDKYDSASEMVVEKHRESRGWVETLRPRYTYFKVPTERDLVYYEASPNFCEPNPETGSFGTRDRTCNVSSHGIDGCDLLCCGRGHNARAERRREKCRCVFHWCCYVSCQECTRVYDVHTCK
Regarding B1, the “germ layer derivatives suppressed in LN-EBs” value with LN-EBs from hESC (serum-free medium, growth factors 10 ng/ml) is “formation of meso-endodermal derivatives labeled with CD34 and alpha-fetoprotein respectively was almost completely abolished”. The “germ layer derivatives formed in LN-EBs” value with LN-EBs from hESC (supplement in medium (growth factors 10 ng/ml serum-free, or 10% FCS), day 15) was “neuro-ectodermal epithelial cells that expressed nestin and formed solid neural tube-like structures were efficiently induced”.

B2: nidogen-1: human nidogen-1 linker protein (R&D systems) (protein, UniProt P14543 29-1247, looked up)
Nidogen-1: LSRQELFPFGPGQGDLELEDGDDFVSPALELSGALRFYDRSDIDAVYVTTNGIIATSEPPAKESHPGLFPPTFGAVAPFLADLDTTDGLGKVYYREDLSPSITQRAAECVHRGFPEISFQPSSAVVVTWESVAPYQGPSRDPDQKGKRNTFQAVLASSDSSSYAIFLYPEDGLQFHTTFSKKENNQVPAVVAFSQGSVGFLWKSNGAYNIFANDRESVENLAKSSNSGQQGVWVFEIGSPATTNGVVPADVILGTEDGAEYDDEDEDYDLATTRLGLEDVGTTPFSYKALRRGGADTYSVPSVLSPRRAATERPLGPPTERTRSFQLAVETFHQQHPQVIDVDEVEETGVVFSYNTDSRQTCANNRHQCSVHAECRDYATGFCCSCVAGYTGNGRQCVAEGSPQRVNGKVKGRIFVGSSQVPIVFENTDLHSYVVMNHGRSYTAISTIPETVGYSLLPLAPVGGIIGWMFAVEQDGFKNGFSITGGEFTRQAEVTFVGHPGNLVIKQRFSGIDEHGHLTIDTELEGRVPQIPFGSSVHIEPYTELYHYSTSVITSSSTREYTVTEPERDGASPSRIYTYQWRQTITFQECVHDDSRPALPSTQQLSVDSVFVLYNQEEKILRYALSNSIGPVREGSPDALQNPCYIGTHGCDTNAACRPGPRTQFTCECSIGFRGDGRTCYDIDECSEQPSVCGSHTICNNHPGTFRCECVEGYQFSDEGTCVAVVDQRPINYCETGLHNCDIPQRAQCIYTGGSSYTCSCLPGFSGDGQACQDVDECQPSRCHPDAFCYNTPGSFTCQCKPGYQGDGFRCVPGEVEKTRCQHEREHILGAAGATDPQRPIPPGLFVPECDAHGHYAPTQCHGSTGYCWCVDRDGREVEGTRTRPGMTPPCLSTVAPPIHQGPAVPTAVIPLPPGTHLLFAQTGKIERLPLEGNTMRKTEAKAFLHVPAKVIIGLAFDCVDKMVYWTDITEPSIGRASLHGGEPTTIIRQDLGSPEGIAVDHLGRNIFWTDSNLDRIEVAKLDGTQRRVLFETDLVNPRGIVTDSVRGNLYWTDWNRDNPKIETSYMDGTNRRILVQDDLGLPNGLTFDAFSSQLCWVDAGTNRAECLNPSQPSRRKALEGLQYPFAVTSYGKNLYFTDWKMNSVVALDLAISKETDAFQPHKQTRLYGITTALSQCPQGHNYCSVNNGGCTHLCLATPGSRTCRCPDNTLGVDCIEQK
Take B2: the hESC aggregation entry in the experiment on hESC lines H1 and H9 (setting [1]) is “minimal aggregation”.

Source of the values: patent publication US20100129910A1, “Cell matrix related compositions and their use for generating embryoid bodies” (priority 2008, published 2010).
